According to patent publication US11965039B2, “Compstatin analogues and their medical uses” (priority 2018, dated 2024):
Starred links: 1 amine or outer side, 2 acyl side, 3 side chain; linkers in the order of their positions; H or OH if unused. Positions of bridges follow the written chain, without caps; N, C: chain ends. Non-standard residues stand in square brackets, D forms with d. Residues, ends and D or L forms follow the SMILES beside them. Groups on a side chain read outwards from the residue. *: point of attachment. C20 diacid = O=C(O)CCCCCCCCCCCCCCCCCCC(=O)*; Trp(1-Me) = Cn1cc(C[C@H](N)C(=O)O)c2ccccc21; C18 diacid = O=C(O)CCCCCCCCCCCCCCCCC(=O)*; C16 diacid = O=C(O)CCCCCCCCCCCCCCC(=O)*; γGlu = O=C(O)[C@H](CCC(=O)[*:2])N[*:1]; AEEA = NCCOCCOCC(=O)O; Sar = CNCC(=O)O

tested on: classical complement pathway; experiment: In vitro haemolysis assay (inhibition of classical complement pathway); type: cell-based, human; conditions: human serum, sensitized sheep red blood cells; Table 3, given as upper bounds; read-out: IC50, inhibition of hemolysis
In short: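 Compound dilutions preincubated 15 min at room temperature with diluted human serum (titrated per batch for 70-90% maximal haemolysis), then antibody-sensitized sheep RBC (10^7/well) added for 30 min at 37 °C in Tris/casein buffer, pH 7.4. Stopped with EDTA; haemolysis read at 405 nm; IC50 by 4PL fit.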

Row | Structure (SMILES) | IC50 [nM]
1 | CC[C@H](C)[C@H](NC(C)=O)C(=O)N[C@H]1CSSC[C@@H](C(=O)N[C@H](C(=O)N[C@@H](CCC(=O)O)C(=O)NCC(=O)N[C@@H](CCCCNC(=O)COCCOCCNC(=O)COCCOCCNC(=O)CC[C@H](NC(=O)CCCCCCCCCCCCCCCCCCC(=O)O)C(=O)O)C(N)=O)[C@@H](C)O)NC(=O)[C@H](CCCNC(=N)N)NC(=O)[C@H](Cc2c[nH]cn2)NC(=O)[C@H](CCC(=O)O)NC(=O)CNC(=O)[C@H](Cc2c[nH]c3ccccc23)NC(=O)[C@H](CC(=O)O)NC(=O)[C@H](CCC(N)=O)NC(=O)[C@H](Cc2c[nH]c3ccccc23)NC(=O)[C@H]([C@@H](C)CC)NC1=O [Compound 98] (Ac-ICIWQDWGEHRCTEGK([AEEA-AEEA-γGlu-C20 diacid])-NH2; disulfide 2-12) | < 500
2 | CC[C@H](C)[C@@H]1NC(=O)[C@@H](NC(=O)[C@H](Cc2ccccc2)NC(=O)[C@H](CCC(=O)O)NC(=O)[C@H](CO)NC(C)=O)CSSC[C@@H](C(=O)N[C@H](C(=O)N[C@@H](CCC(=O)O)C(=O)NCC(=O)N[C@@H](CCC(=O)O)C(=O)NCC(=O)NCC(=O)NCC(=O)N[C@@H](CCCCNC(=O)CC[C@H](NC(=O)CNC(=O)CC[C@H](NC(=O)CCCCCCCCCCCCCCC(=O)O)C(=O)O)C(=O)O)C(N)=O)[C@@H](C)O)NC(=O)[C@H](CCCNC(=N)N)NC(=O)[C@H](Cc2c[nH]cn2)NC(=O)[C@H](CCC(=O)O)NC(=O)CNC(=O)[C@H](Cc2c[nH]c3ccccc23)NC(=O)[C@H](CC(=O)O)NC(=O)[C@H](CCC(N)=O)NC(=O)[C@H](Cc2cn(C)c3ccccc23)NC1=O [Compound 131] (Ac-SEFCI[Trp(1-Me)]QDWGEHRCTEGEGGGK([γGlu-Gly-γGlu-C16 diacid])-NH2; disulfide 4-14) | < 100
3 | CC[C@H](C)[C@H](NC(=O)[C@H](C)NC(=O)[C@H](CO)NC(=O)[C@H](CO)NC(=O)[C@H](CCC(=O)O)NC(C)=O)C(=O)N[C@H]1CSSC[C@@H](C(=O)N[C@H](C(N)=O)[C@@H](C)O)NC(=O)[C@H](CCCNC(=N)N)NC(=O)[C@H](Cc2c[nH]cn2)NC(=O)[C@H](C)NC(=O)CNC(=O)[C@H](Cc2c[nH]c3ccccc23)NC(=O)[C@H](CC(=O)O)NC(=O)[C@H](CCC(N)=O)NC(=O)[C@H](Cc2c[nH]c3ccccc23)NC(=O)[C@H]([C@@H](C)CC)NC1=O [Compound 46] (Ac-ESSAICIWQDWGAHRCT-NH2; disulfide 6-16) | < 100
4 | CC[C@H](C)[C@@H]1NC(=O)[C@@H](NC(=O)[C@H](Cc2ccccc2)NC(=O)[C@H](CCC(=O)O)NC(=O)[C@H](CO)NC(C)=O)CSSC[C@@H](C(=O)N(C)CC(=O)N[C@@H](CCC(=O)O)C(=O)NCC(=O)N[C@@H](CCC(=O)O)C(=O)NCCOCCOCC(=O)NCCOCCOCC(=O)N[C@@H](CCCCNC(=O)CC[C@H](NC(=O)CNC(=O)CC[C@H](NC(=O)CCCCCCCCCCCCCCCCC(=O)O)C(=O)O)C(=O)O)C(N)=O)NC(=O)[C@H](CCCNC(=N)N)NC(=O)[C@H](Cc2c[nH]cn2)NC(=O)[C@H](CCC(=O)O)NC(=O)CNC(=O)[C@H](Cc2c[nH]c3ccccc23)NC(=O)[C@H](CCC(=O)O)NC(=O)[C@H](CCC(N)=O)NC(=O)[C@H](Cc2cn(C)c3ccccc23)NC1=O [Compound 124] (Ac-SEFCI[Trp(1-Me)]QEWGEHRC[Sar]EGE[AEEA][AEEA]K([γGlu-Gly-γGlu-C18 diacid])-NH2; disulfide 4-14) | < 100
5 | CC[C@H](C)[C@H](NC(C)=O)C(=O)N[C@H]1CSSC[C@@H](C(=O)N[C@H](C(=O)N[C@@H](CCC(=O)O)C(=O)NCC(=O)N[C@@H](CCC(=O)O)C(=O)N[C@@H](CCCCNC(=O)COCCOCCNC(=O)COCCOCCNC(=O)CC[C@H](NC(=O)CCCCCCCCCCCCCCC(=O)O)C(=O)O)C(N)=O)[C@@H](C)O)NC(=O)[C@H](CCCNC(=N)N)NC(=O)[C@H](Cc2c[nH]cn2)NC(=O)[C@H](CCC(=O)O)NC(=O)CNC(=O)[C@H](Cc2c[nH]c3ccccc23)NC(=O)[C@H](CC(=O)O)NC(=O)[C@H](CCC(N)=O)NC(=O)[C@H](Cc2c[nH]c3ccccc23)NC(=O)[C@H]([C@@H](C)CC)NC1=O [Compound 94] (Ac-ICIWQDWGEHRCTEGEK([AEEA-AEEA-γGlu-C16 diacid])-NH2; disulfide 2-12) | < 500
6 | CC[C@H](C)[C@H](NC(C)=O)C(=O)N[C@H]1CSSC[C@@H](C(=O)N[C@H](C(=O)N[C@@H](CCC(=O)O)C(=O)NCC(=O)N[C@@H](CCCCNC(=O)COCCOCCNC(=O)COCCOCCNC(=O)CC[C@H](NC(=O)CCCCCCCCCCCCCCC(=O)O)C(=O)O)C(N)=O)[C@@H](C)O)NC(=O)[C@H](CCCNC(=N)N)NC(=O)[C@H](Cc2c[nH]cn2)NC(=O)[C@H](CCC(=O)O)NC(=O)CNC(=O)[C@H](Cc2c[nH]c3ccccc23)NC(=O)[C@H](CC(=O)O)NC(=O)[C@H](CCC(N)=O)NC(=O)[C@H](Cc2c[nH]c3ccccc23)NC(=O)[C@H]([C@@H](C)CC)NC1=O [Compound 93] (Ac-ICIWQDWGEHRCTEGK([AEEA-AEEA-γGlu-C16 diacid])-NH2; disulfide 2-12) | < 500
7 | CC[C@H](C)[C@@H]1NC(=O)[C@@H](NC(=O)[C@H](Cc2ccc(O)cc2)NC(=O)[C@H](CCC(=O)O)NC(=O)[C@H](CO)NC(C)=O)CSSC[C@@H](C(=O)N(C)CC(=O)N[C@@H](CCC(=O)O)C(=O)NCC(=O)N[C@@H](C)C(=O)N[C@@H](CCCCNC(=O)CC[C@H](NC(=O)CNC(=O)CC[C@H](NC(=O)CCCCCCCCCCCCCCCCC(=O)O)C(=O)O)C(=O)O)C(N)=O)NC(=O)[C@H](CCCNC(=N)N)NC(=O)[C@H](Cc2c[nH]cn2)NC(=O)[C@H](CCC(=O)O)NC(=O)CNC(=O)[C@H](Cc2c[nH]c3ccccc23)NC(=O)[C@H](CC(=O)O)NC(=O)[C@H](CCC(N)=O)NC(=O)[C@H](Cc2cn(C)c3ccccc23)NC1=O [Compound 112] (Ac-SEYCI[Trp(1-Me)]QDWGEHRC[Sar]EGAK([γGlu-Gly-γGlu-C18 diacid])-NH2; disulfide 4-14) | < 500
8 | CC[C@H](C)[C@@H]1NC(=O)[C@@H](NC(=O)CN(C)C(=O)[C@H](CCC(=O)O)NC(=O)[C@H](CO)NC(C)=O)CSSC[C@@H](C(=O)N[C@H](C(=O)N[C@@H](CCC(=O)O)C(=O)N[C@@H](C)C(N)=O)[C@@H](C)O)NC(=O)[C@H](CCCNC(=N)N)NC(=O)[C@H](Cc2c[nH]cn2)NC(=O)[C@H](CCC(=O)O)NC(=O)CNC(=O)[C@H](Cc2c[nH]c3ccccc23)NC(=O)[C@H](CC(=O)O)NC(=O)[C@H](CCC(N)=O)NC(=O)[C@H](Cc2cn(C)c3ccccc23)NC1=O [Compound 82] (Ac-SE[Sar]CI[Trp(1-Me)]QDWGEHRCTEA-NH2; disulfide 4-14) | < 100
9 | CC[C@H](C)[C@@H]1NC(=O)[C@@H](NC(=O)[C@H](Cc2ccccc2)NC(=O)[C@H](CCC(=O)O)NC(=O)[C@H](CO)NC(C)=O)CSSC[C@@H](C(=O)N(C)CC(=O)N[C@@H](CCC(=O)O)C(=O)NCCOCCOCC(=O)NCCOCCOCC(=O)N[C@@H](CCCCNC(=O)CC[C@H](NC(=O)CNC(=O)CC[C@H](NC(=O)CCCCCCCCCCCCCCCCC(=O)O)C(=O)O)C(=O)O)C(N)=O)NC(=O)[C@H](CCCNC(=N)N)NC(=O)[C@H](Cc2c[nH]cn2)NC(=O)[C@H](CCC(=O)O)NC(=O)CN(C)C(=O)[C@H](Cc2c[nH]c3ccccc23)NC(=O)[C@H](CC(=O)O)NC(=O)[C@H](CCC(N)=O)NC(=O)[C@H](Cc2cn(C)c3ccccc23)NC1=O [Compound 144, Ac-SEFC(1)I[1-Me-Trp]QDW[Sar]EHRC(1)[Sar]E[Peg3][Peg3]-K([17-carboxy-heptadecanoyl][γGlu]G[γGlu])-NH2] (Ac-SEFCI[Trp(1-Me)]QDW[Sar]EHRC[Sar]E[AEEA][AEEA]K([γGlu-Gly-γGlu-C18 diacid])-NH2; disulfide 4-14) | < 100
10 | CC[C@H](C)[C@@H]1NC(=O)[C@@H](NC(=O)[C@H](Cc2ccccc2)NC(=O)[C@H](CCC(=O)O)NC(=O)[C@H](CO)NC(C)=O)CSSC[C@@H](C(=O)N(C)CC(=O)N[C@@H](CCC(=O)O)C(=O)NCC(=O)N[C@@H](CCC(=O)O)C(=O)N[C@@H](CO)C(=O)N[C@@H](CCC(=O)O)C(=O)N[C@@H](CO)C(=O)N[C@@H](CCCCNC(=O)CC[C@H](NC(=O)CCCCCCCCCCCCCCCCC(=O)O)C(=O)O)C(N)=O)NC(=O)[C@H](CCCNC(=N)N)NC(=O)[C@H](Cc2c[nH]cn2)NC(=O)[C@H](CCC(=O)O)NC(=O)CNC(=O)[C@H](Cc2c[nH]c3ccccc23)NC(=O)[C@H](CC(=O)O)NC(=O)[C@H](CCC(N)=O)NC(=O)[C@H](Cc2cn(C)c3ccccc23)NC1=O [Compound 141] (Ac-SEFCI[Trp(1-Me)]QDWGEHRC[Sar]EGESESK([γGlu-C18 diacid])-NH2; disulfide 4-14) | < 100
11 | CC[C@H](C)[C@@H]1NC(=O)[C@@H](NC(=O)[C@@H](NC(=O)[C@H](CCC(=O)O)NC(=O)CNC(=O)[C@H](CCC(=O)O)NC(C)=O)[C@@H](C)CC)CSSC[C@@H](C(=O)N[C@@H](CCC(=O)O)C(=O)NCC(=O)N[C@@H](CCC(=O)O)C(N)=O)NC(=O)[C@H](CCCNC(=N)N)NC(=O)[C@H](Cc2c[nH]cn2)NC(=O)[C@H](CCC(=O)O)NC(=O)CNC(=O)[C@H](Cc2c[nH]c3ccccc23)NC(=O)[C@H](CC(=O)O)NC(=O)[C@H](CCC(N)=O)NC(=O)[C@H](Cc2c[nH]c3ccccc23)NC1=O [Compound 35] (Ac-EGEICIWQDWGEHRCEGE-NH2; disulfide 5-15) | < 500
